Results published in patent publication US20230101743A1, “SUBSTITUTED TRIAZINE COMPOUNDS AND USES THEREOF” (MUSC FOUNDATION FOR RESEARCH DEVELOPMENT, priority 2020, published 2023).

Assays:
[1] = tested on: Hepatic neutral lipid; assay: Neutral lipid staining (BODIPY 493/503) in iPSC-derived hepatocytes; format: cell-based, human; settings: 72 hours; DL-1 2 μg/mL, CP-346086 20 nM
Protocol: H. Human iPSC derived hepatocytes were treated with DL-1 (2 μg/mL) and MTTP inhibitor CP-346086 (20 nM) for 72 hours. […] (A) Hepatic neutral lipid was determined by staining with 2 μM of BODIPYTM 493/503 for 15 mins and fixed with 4% PFA for microscopy. Nuclei were stained blue by DAPI. Scale bar=100 μm. […] Data are shown as mean±SEM of ten replicates (n=10); ***p<0.001.
K3 iPSC-derived hepatocytes (Day 20) were treated with or without 2 μg/mL of DL-1 or 20 nM of CP-346086 (Sigma) for 72 hours with daily medium change. At the time-point of interest, cells were treated with 2 μM of BODIPY® 493/503 staining solution (ThermoFisher) and 5 μg/mL of Hoechst 33342 (ThermoFisher) in PBS at 37 degrees for 15 minutes. Cells were washed with sterile PBS three times and then fixed with 4% PFA. Fluorescence images were taken using Bio-rad Zoeυ Fluorescent Cell Imager (Bio-Rad) and KEYENCE BZ-X800E Fluorescence Microscope (KEYENCE). Integrated fluorescent intensity was normalized by total cell counts, which is determined by DAPI staining.

[2] = tested on: total cholesterol levels within the medium; assay: Total cholesterol quantification in culture medium of iPSC-derived hepatocytes; format: cell-based, human; settings: 2 μg/mL, 24 hours; normalized with DMSO treated control
Protocol: B. Human iPSC-derived hepatocytes were treated with 2 μg/mL of DL-1 for 24 hours. Total cholesterol levels within the medium were determined and normalized with DMSO treated control. Data are shown as mean±SEM of six replicates (n=6); * ** P<0.001.
Cell Culture medium was harvested from human iPSC-derived hepatocytes (Day 20) before and after 24 hours of DL-1 (2 μg/mL) or vehicle treatment. Pre-drug and Post-drug medium were concentrated using Amico® Ultra 10K Centrifugal Filters (Sigma-Aldrich, #Z740171), and total cholesterol levels were determined using the colorimetric cholesterol assay kit (Sigma-Aldrich, #MAK043) following the manufactural instructions.

[3] = tested on: Intracellular APOB; assay: Intracellular APOB protein by immunoblot; format: cell-based, human; settings: 2 μg/mL, 24 hours
Protocol: G. Human iPSC-derived hepatocytes were treated with 2 μg/mL of DL-1 or equivalent concentration of DMSO for 24 hours. […] (A) APOB mRNA level was determined using real-time qPCR. (B) Intracellular APOB, LDLR, and HSP90 protein levels were determined via immunoblot. (C) Quantification of biological replicates of immunoblots on samples treated as in (B). Data are shown as mean±SEM of four replicates (n=4).
C. Human iPSC-derived hepatocytes (iPSC-Heps) were treated with 2 μg/mL of DL-1 or equivalent concentration of DMSO for 24 hours. In FIG. 7A, APOB mRNA level was determined using real-time qPCR. In FIG. 7B Intracellular APOB, LDLR, and HSP90 protein levels were determined via immunoblot; Quantification of biological replicates of immunoblots. […] In FIG. 12A LDL uptake assay was performed by pre-treating cells with 2 μg/mL of DL-1, 20 μM of Atorvastatin, and equivalent concentration of DMSO for 24 hours followed by 4 hours of pHrodo-LDL exposure; LDL endocytosis was determined and quantified by fluorescence image; data are shown as mean±SD of triplicates (n=3). […]
Immunoprecipitation of cell lysates was performed using protein G magnet beads (ThermoFisher) and anti-APOB (LDL20/17, Mabtech) antibodies. […] Expression levels were quantified via integrated intensity normalized by 5% of input of each sample. […] Signals were detected using HRP-conjugated secondary antibodies. […]

[4] = tested on: APOB secretion in the culture medium of hepatic cells; assay: Secreted APOB ELISA in hepatic cells (K3 and JD4 iPSC-derived hepatocytes, human primary hepatocytes, HepG2); format: cell-based; settings: 2 μg/mL, 24 hours; compared to DMSO-treated cells
Protocol: A. Human-induced pluripotent stem cells from a health donor (K3) and HoFH patient (JD4) were differentiated into hepatocytes via a defined protocol. Two different iPSC-derived Hepatocytes along with human primary hepatocytes and HepG2 cells were treated with 2 μg/mL of DL-1 for 24 hours and secreted APOB level were determined via human-specific APOB ELISA and were compared to DMSO-treated cells. […] Data shown as mean±SEM of triplicates (n=3); * p<0.05, *** P<0.001.
Human iPSCs were generated previously and have been described elsewhere (Si-Tayeb, 2010; Cayo et al., 2012). […]
Human APOB level was determined via a commercial sandwich ELISA (3715-1H-6; Mabtech), and the signal was detected using the HRP-TMB system. The concentration of APOB was determined using a standard curve with four parameters logistic regression model. Human APOA level was determined via a commercial sandwich ELISA (3710-1H-6; Mabtech) following manufacture instruction. Human albumin levels in cell culture supernatants were measured by commercial ELISA (E88-129; Bethyl Laboratories) following manufactural instructions.

hepatic lipid accumulation (neutral lipid level) [1]: no impact on hepatic lipid accumulation
SMILES: Sc1nc(S)nc(Nc2ccc(Nc3ccccc3)cc2)n1 (racemic) [DL-1, 6-{[4-(phenylamino)phenyl]amino}-1,3,5-triazine-2,4-dithiol]
total cholesterol level in culture medium [2]: reduced total cholesterol level
intracellular APOB protein level [3]: no impact on APOB mRNA and intracellular protein levels
secreted APOB level [4]: reduces APOB secretion
